The results in this text go back to ChEMBL document CHEMBL5728923, “Cyclin dependent kinase inhibitors” (2022).

The assay deals with Cyclin-dependent kinase 4/cyclin D1 (Homo sapiens, UniProt P11802+P24385). The assay is described as follows: Mobility Shift Assay : The purpose CDK4/Cyclin D1 assay is to evaluate the inhibition (% inhibition, Kiapp and Ki values) in the presence of small molecule inhibitors by using a fluorescence based microfluidic mobility shift assay. CDK4/Cyclin D1 catalyzes the production of ADP from ATP that accompanies the phosphoryl transfer to the substrate peptide 5-FAM-Dyrktide (5-FAM-[…]) (SEQ ID NO:1). The mobility shift assay electrophoretically separates the fluorescently labeled peptides (substrate and phosphorylated product) following the kinase reaction. Both substrate and product are measured and the ratio of these values is used to generate % Conversion of substrate to product by the LabChip EZ Reader. […] The reaction was stopped after 195 minutes by the addition of 50 μL of 30 mM EDTA. Ki determinations were made from a plot of the fractional velocity as a function of inhibitor concentration fit to the Morrison equation with the enzyme concentration as a variable. The format is protein-complex assay.
Cyclin-dependent kinase 4/cyclin D1, sequence (P11802 whole entry): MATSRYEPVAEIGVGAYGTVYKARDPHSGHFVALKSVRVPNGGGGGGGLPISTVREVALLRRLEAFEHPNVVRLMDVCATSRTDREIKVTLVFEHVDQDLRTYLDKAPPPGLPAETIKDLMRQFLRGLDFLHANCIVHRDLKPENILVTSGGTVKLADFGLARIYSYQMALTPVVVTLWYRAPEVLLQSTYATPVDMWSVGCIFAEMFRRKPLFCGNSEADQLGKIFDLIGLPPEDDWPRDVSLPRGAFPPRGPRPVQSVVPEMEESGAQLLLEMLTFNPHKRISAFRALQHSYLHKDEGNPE
Cyclin-dependent kinase 4/cyclin D1, sequence (P24385 whole entry): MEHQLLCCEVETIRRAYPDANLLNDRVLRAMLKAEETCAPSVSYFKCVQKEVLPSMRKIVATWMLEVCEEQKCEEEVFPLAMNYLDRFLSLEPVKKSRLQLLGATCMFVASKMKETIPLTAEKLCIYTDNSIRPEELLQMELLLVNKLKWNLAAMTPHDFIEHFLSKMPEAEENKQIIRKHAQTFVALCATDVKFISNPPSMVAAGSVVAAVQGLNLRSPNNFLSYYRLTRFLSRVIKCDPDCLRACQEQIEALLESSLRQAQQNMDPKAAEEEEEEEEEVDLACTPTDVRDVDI

Turning to `CC(C)n1c([C@H](C)O)nc2c(F)cc(-c3cc(N[C@@H]4CCN(S(C)(=O)=O)C[C@H]4O)ncc3Cl)cc21` (single isomer, unassigned), the Ki is 0.1 nM.
